Assay results: EP4417602A1, “SUBSTITUTED PYRAZOLE CARBOXAMIDES, SALTS THEREOF AND THEIR USE AS HERBICIDALLY ACTIVE SUBSTANCES” (Bayer AG, priority 2023, dated 2024)

tested on: AMARE; assay: A. Herbicidal pre-emergence action on harmful plants (Tables A); assay type: in vivo, Amaranthus retroflexus; conditions: application rate 1280 g/ha; visual grading after ca. 3 weeks vs untreated controls; 100% = plants have died off, 0% = as control plants
Description: (§1) Seeds of mono- and dicotyledonous weed plants were sown in plastic pots (double sowings with one species of mono- and one species of dicotyledonous weed plants per pot), in sandy loam, and covered with soil. The compounds according to the invention, formulated in the form of wettable powders (WP) or as emulsifiable concentrates (EC), were applied to the surface of the covering soil as aqueous suspension or emulsion, with the addition of 0.5% of an additive, at an application rate of 6001 of water per hectare (converted). Following treatment, the pots were placed in a greenhouse and kept under optimum growth conditions for the test plants. The visual grading of the damage to the test plants was carried out after ca. 3 weeks in comparison to untreated controls (herbicidal effect in percent (%): 100% effect = plants have died off, 0% effect = as control plants). Tables A1 to A12, below, show the effects of selected compounds of the general formula (I) according to table 1 on various harmful plants and an application rate corresponding to 1280 g/ha or below obtained by the experimental procedure mentioned above. Table A1: pre-emergence activity at 1280g/ha against ABUTH in %

Compound	pre-emergence activity against AMARE
COCc1nn(C)cc1C(=O)N1CCCC1Cc1c(F)cccc1F (racemic) [Example I-081]	90%
COCc1c(C(=O)N2CCCC2Cc2ccc(Cl)cc2Cl)cnn1C (racemic) [Example I-166]	90%

tested on: LOLRI; assay: as above; assay type: in vivo, Lolium rigidum; conditions: application rate 80 g/ha; visual grading after ca. 3 weeks vs untreated controls; 100% = plants have died off, 0% = as control plants
Description: as §1

Compound	pre-emergence activity against LOLRI
COCc1nn(C)cc1C(=O)N1CCCC1Cc1c(F)cccc1F (racemic) [Example I-081]	100%

same assay, conditions: application rate 320 g/ha; visual grading after ca. 3 weeks vs untreated controls; 100% = plants have died off, 0% = as control plants

Compound	pre-emergence activity against LOLRI
COCc1nn(C)cc1C(=O)N1CCCC1Cc1c(F)cccc1F (racemic) [Example I-081]	100%

same assay, conditions: application rate 1280 g/ha; visual grading after ca. 3 weeks vs untreated controls; 100% = plants have died off, 0% = as control plants

Compound	pre-emergence activity against LOLRI
COCc1nn(C)cc1C(=O)N1CCCC1Cc1c(F)cccc1F (racemic) [Example I-081]	100%
COCc1c(C(=O)N2CCCC2Cc2ccc(Cl)cc2Cl)cnn1C (racemic) [Example I-166]	100%

tested on: POAAN; assay: as above; assay type: in vivo, Poa annua; conditions: application rate 80 g/ha; Table A7c
Description: as §1

Compound	pre-emergence activity against POAAN
COCc1nn(C)cc1C(=O)N1CCCC1Cc1c(F)cccc1F (racemic) [Example I-081]	100%
COCc1c(C(=O)N2CCCC2Cc2ccc(Cl)cc2Cl)cnn1C (racemic) [Example I-166]	90%

same assay, conditions: application rate 320 g/ha; Table A7b

Compound	pre-emergence activity against POAAN
COCc1nn(C)cc1C(=O)N1CCCC1Cc1c(F)cccc1F (racemic) [Example I-081]	100%
COCc1c(C(=O)N2CCCC2Cc2ccc(Cl)cc2Cl)cnn1C (racemic) [Example I-166]	90%

same assay, conditions: application rate 1280 g/ha; visual grading after ca. 3 weeks vs untreated controls; 100% = plants have died off, 0% = as control plants

Compound	pre-emergence activity against POAAN
COCc1nn(C)cc1C(=O)N1CCCC1Cc1c(F)cccc1F (racemic) [Example I-081]	100%
COCc1c(C(=O)N2CCCC2Cc2ccc(Cl)cc2Cl)cnn1C (racemic) [Example I-166]	100%

tested on: MATIN; assay: B. Herbicidal post-emergence action on harmful plants (Tables B); assay type: in vivo, Matricaria inodora; conditions: application rate 1280 g/ha; Table B4a
Procedure: (§2) Seeds of mono- and dicotyledonous weed plants were placed in plastic pots in sandy loam soil (doubly sown with in each case one species of mono- or dicotyledonous weed plants per pot), covered with soil and cultivated in a greenhouse under controlled growth conditions. 2 to 3 weeks after sowing, the test plants were treated at the one-leaf stage. The compounds of the invention, formulated in the form of wettable powders (WP) or as emulsion concentrates (EC), were applied onto the green parts of the plants as aqueous suspension or emulsion with addition of 0.5% additive at a water application rate of 600 liters per hectare (converted). After the test plants had been kept in the greenhouse under optimum growth conditions for about 3 weeks, the activity of the preparations was rated visually in comparison to untreated controls. For example, 100% activity = the plants have died, 0% activity = like control plants. Tables B1 to B12, below, show the effects of selected compounds of the general formula (I) according to table 1 on various harmful plants and an application rate corresponding to 1280 g/ha or below obtained by the experimental procedure mentioned above. Table B1a: post-emergence activity at 1280g/ha against ABUTH in %

Compound	post-emergence activity against MATIN
COCc1nn(C)cc1C(=O)N1CCCC1Cc1c(F)cccc1F (racemic) [Example I-081]	90%
COCc1c(C(=O)N2CCCC2Cc2ccc(Cl)cc2Cl)cnn1C (racemic) [Example I-166]	90%

tested on: ECHCG; assay: as above; assay type: in vivo, Echinochloa crus-galli; conditions: application rate 1280 g/ha; Table B2a
Procedure: as §2

Compound	post-emergence activity against ECHCG
COCc1c(C(=O)N2CCCC2Cc2ccc(Cl)cc2Cl)cnn1C (racemic) [Example I-166]	90%

tested on: STEME; assay: A. Herbicidal pre-emergence action on harmful plants (Tables A); assay type: in vivo, Stellaria media; conditions: application rate 1280 g/ha; visual grading after ca. 3 weeks vs untreated controls; 100% = plants have died off, 0% = as control plants
Description: as §1

Compound	pre-emergence activity against STEME
COCc1nn(C)cc1C(=O)N1CCCC1Cc1c(F)cccc1F (racemic) [Example I-081]	90%
COCc1c(C(=O)N2CCCC2Cc2ccc(Cl)cc2Cl)cnn1C (racemic) [Example I-166]	90%

tested on: POAAN; assay: B. Herbicidal post-emergence action on harmful plants (Tables B); assay type: in vivo, Poa annua; conditions: application rate 80 g/ha; Table B7c
Procedure: as §2

Compound	post-emergence activity against POAAN
COCc1nn(C)cc1C(=O)N1CCCC1Cc1c(F)cccc1F (racemic) [Example I-081]	90%

same assay, conditions: application rate 320 g/ha; Table B7b

Compound	post-emergence activity against POAAN
COCc1nn(C)cc1C(=O)N1CCCC1Cc1c(F)cccc1F (racemic) [Example I-081]	90%

same assay, conditions: application rate 1280 g/ha; Table B7a

Compound	post-emergence activity against POAAN
COCc1nn(C)cc1C(=O)N1CCCC1Cc1c(F)cccc1F (racemic) [Example I-081]	100%
COCc1c(C(=O)N2CCCC2Cc2ccc(Cl)cc2Cl)cnn1C (racemic) [Example I-166]	90%

tested on: SETVI; assay: A. Herbicidal pre-emergence action on harmful plants (Tables A); assay type: in vivo, Setaria viridis; conditions: application rate 80 g/ha; visual grading after ca. 3 weeks vs untreated controls; 100% = plants have died off, 0% = as control plants
Description: as §1

Compound	pre-emergence activity against SETVI
COCc1nn(C)cc1C(=O)N1CCCC1Cc1c(F)cccc1F (racemic) [Example I-081]	90%

same assay, conditions: application rate 320 g/ha; visual grading after ca. 3 weeks vs untreated controls; 100% = plants have died off, 0% = as control plants

Compound	pre-emergence activity against SETVI
COCc1nn(C)cc1C(=O)N1CCCC1Cc1c(F)cccc1F (racemic) [Example I-081]	100%

same assay, conditions: application rate 1280 g/ha; visual grading after ca. 3 weeks vs untreated controls; 100% = plants have died off, 0% = as control plants

Compound	pre-emergence activity against SETVI
COCc1nn(C)cc1C(=O)N1CCCC1Cc1c(F)cccc1F (racemic) [Example I-081]	100%
COCc1c(C(=O)N2CCCC2Cc2ccc(Cl)cc2Cl)cnn1C (racemic) [Example I-166]	90%

tested on: ECHCG; assay: as above; assay type: in vivo, Echinochloa crus-galli; conditions: application rate 80 g/ha; visual grading after ca. 3 weeks vs untreated controls; 100% = plants have died off, 0% = as control plants
Description: as §1

Compound	pre-emergence activity against ECHCG
COCc1nn(C)cc1C(=O)N1CCCC1Cc1c(F)cccc1F (racemic) [Example I-081]	90%

same assay, conditions: application rate 320 g/ha; visual grading after ca. 3 weeks vs untreated controls; 100% = plants have died off, 0% = as control plants

Compound	pre-emergence activity against ECHCG
COCc1nn(C)cc1C(=O)N1CCCC1Cc1c(F)cccc1F (racemic) [Example I-081]	100%

same assay, conditions: application rate 1280 g/ha; visual grading after ca. 3 weeks vs untreated controls; 100% = plants have died off, 0% = as control plants

Compound	pre-emergence activity against ECHCG
COCc1nn(C)cc1C(=O)N1CCCC1Cc1c(F)cccc1F (racemic) [Example I-081]	100%
COCc1c(C(=O)N2CCCC2Cc2ccc(Cl)cc2Cl)cnn1C (racemic) [Example I-166]	90%

tested on: DIGSA; assay: as above; assay type: in vivo, Digitaria sanguinalis; conditions: application rate 80 g/ha; Table A12c
Description: as §1

Compound	pre-emergence activity against DIGSA
COCc1nn(C)cc1C(=O)N1CCCC1Cc1c(F)cccc1F (racemic) [Example I-081]	90%

same assay, conditions: application rate 320 g/ha; Table A12b

Compound	pre-emergence activity against DIGSA
COCc1nn(C)cc1C(=O)N1CCCC1Cc1c(F)cccc1F (racemic) [Example I-081]	100%

same assay, conditions: application rate 1280 g/ha; Table A12a

Compound	pre-emergence activity against DIGSA
COCc1nn(C)cc1C(=O)N1CCCC1Cc1c(F)cccc1F (racemic) [Example I-081]	100%

tested on: VERPE; assay: B. Herbicidal post-emergence action on harmful plants (Tables B); assay type: in vivo, Veronica persica; conditions: application rate 1280 g/ha; Table B11a
Procedure: as §2

Compound	post-emergence activity against VERPE
COCc1c(C(=O)N2CCCC2Cc2ccc(Cl)cc2Cl)cnn1C (racemic) [Example I-166]	90%

tested on: ALOMY; assay: A. Herbicidal pre-emergence action on harmful plants (Tables A); assay type: in vivo, Alopecurus myosuroides; conditions: application rate 320 g/ha; Table A9b
Description: as §1

Compound	pre-emergence activity against ALOMY
COCc1nn(C)cc1C(=O)N1CCCC1Cc1c(F)cccc1F (racemic) [Example I-081]	90%

same assay, conditions: application rate 1280 g/ha; Table A9a

Compound	pre-emergence activity against ALOMY
COCc1nn(C)cc1C(=O)N1CCCC1Cc1c(F)cccc1F (racemic) [Example I-081]	100%

tested on: MATIN; assay: as above; assay type: in vivo, Matricaria inodora; conditions: application rate 320 g/ha; visual grading after ca. 3 weeks vs untreated controls; 100% = plants have died off, 0% = as control plants
Description: as §1

Compound	pre-emergence activity against MATIN
COCc1nn(C)cc1C(=O)N1CCCC1Cc1c(F)cccc1F (racemic) [Example I-081]	90%

same assay, conditions: application rate 1280 g/ha; visual grading after ca. 3 weeks vs untreated controls; 100% = plants have died off, 0% = as control plants

Compound	pre-emergence activity against MATIN
COCc1nn(C)cc1C(=O)N1CCCC1Cc1c(F)cccc1F (racemic) [Example I-081]	90%
